From ChEMBL document CHEMBL6071165, “Design, synthesis and biological evaluation of plant-derived miliusol derivatives achieve TNBC profound regression in vivo” (Eur J Med Chem, 2024)
Active and inactive are the calls of the source. No cut-off for these calls is given here.

Tests used:
[1] = Antiproliferative activity against human MCF-10A cells assessed as inhibition of cell proliferation incubated for 24 hrs by MTT assay; assay type: toxicity, cell-based
[2] = test system: BT-549; experiment: Inhibition of DNA replication in human BT-549 cells assessed as reduction in EDU fluorescence intensity by EDU staining based fluorescence microscopic analysis; assay type: functional, cell-based; details: dose 0.5-2 µM
[3] = test system: BT-549; experiment: Inhibition of cell migration in human BT-549 cells assessed as decrease in SNAIL level at 1 uM incubated for 24 hrs by DAPI staining based immunofluorescence analysis; assay type: functional
[4] = test system: BT-549; experiment: Inhibition of cell migration in human BT-549 cells assessed as reduction in MMP-2 protein level at 1 uM incubated for 24 hrs by DAPI staining based immunofluorescence analysis; assay type: functional
[5] = test system: MDA-MB-231; experiment: Inhibition of cell migration in human MDA-MB-231 cells assessed as decrease in MMP-2 level incubated for 24 hrs by Western blot analysis; assay type: functional, cell-based; details: dose 0.5-2 µM
[6] = test system: MDA-MB-231; experiment: Downregulation of c-Jun level in human MDA-MB-231 cells incubated for 24 hrs by Western blot analysis; assay type: functional, cell-based; details: dose 0.5-2 µM
[7] = test system: MDA-MB-231; experiment: Inhibition of glycolysis in human MDA-MB-231 cells assessed as reduction in glucose uptake at 0.5 to 2 uM incubated for 24 hrs followed by 2-NBDG staining based flow cytometric analysis; assay type: functional, cell-based; details: dose 0.5-2 µM
[8] = test system: MDA-MB-231; experiment: Downregulation of LDHA expression in human MDA-MB-231 cells at 1 uM incubated for 24 hrs by DAPI staining based immunofluorescence analysis; assay type: functional, cell-based
[9] = test system: BT-549; experiment: Inhibition of glycolysis in human BT-549 cells assessed as decrease in PKM2 protein level at 0.5 to 2 uM incubated for 24 hrs by Western blot analysis; assay type: functional, cell-based; details: dose 0.5-2 µM
[10] = test system: BT-549; experiment: Inhibition of glycolysis in human BT-549 cells assessed as decrease in LDHA protein level at 0.5 to 2 uM incubated for 24 hrs by Western blot analysis; assay type: functional, cell-based; details: dose 0.5-2 µM
[11] = test system: MDA-MB-231; experiment: Inhibition of glycolysis in human MDA-MB-231 cells assessed as decrease in LDHA protein level at 0.5 to 2 uM incubated for 24 hrs by Western blot analysis; assay type: functional, cell-based; details: dose 0.5-2 µM
[12] = test system: MDA-MB-231; experiment: Induction of ER stress in human MDA-MB-231 cells assessed as activation of BIP protein level incubated for 24 hrs by Western blot analysis; assay type: functional, cell-based; details: dose 0.5-2 µM
[13] = test system: BT-549; experiment: Induction of ER stress in human BT-549 cells assessed as activation of BIP protein level incubated for 24 hrs by Western blot analysis; assay type: functional, cell-based; details: dose 0.5-2 µM
[14] = test system: MDA-MB-231; experiment: Induction of apoptosis in human MDA-MB-231 cells incubated for 24 hrs by Annexin V-PI staining based flow cytometric analysis; assay type: functional, cell-based; details: dose 0.5-2 µM
[15] = test system: BT-549; experiment: Induction of apoptosis in human BT-549 cells assessed as early apoptotic cells at 0.5 uM incubated for 24 hrs by Annexin V-PI staining based flow cytometric analysis (reference value: 0.78%); assay type: functional
[16] = test system: BT-549; experiment: Induction of apoptosis in human BT-549 cells assessed as necrotic cells at 0.5 uM incubated for 24 hrs by Annexin V-PI staining based flow cytometric analysis (reference value: 3.32%); assay type: functional
[17] = test system: BT-549; experiment: Induction of apoptosis in human BT-549 cells assessed as viable cells at 1 uM incubated for 24 hrs by Annexin V-PI staining based flow cytometric analysis (reference value: 93.0%); assay type: functional; details: read-out: Activity
[18] = test system: BT-549; experiment: Induction of apoptosis in human BT-549 cells assessed as early apoptotic cells at 1 uM incubated for 24 hrs by Annexin V-PI staining based flow cytometric analysis (reference value: 0.78%); assay type: functional
[19] = test system: BT-549; experiment: Induction of apoptosis in human BT-549 cells assessed as late apoptotic cells at 1 uM incubated for 24 hrs by Annexin V-PI staining based flow cytometric analysis (reference value: 2.95%); assay type: functional
[20] = test system: MDA-MB-231; experiment: Induction of apoptosis in human MDA-MB-231 cells assessed as early apoptotic cells at 0.5 uM incubated for 24 hrs by Annexin V-PI staining based flow cytometric analysis (reference value: 0.42%); assay type: functional
[21] = test system: MDA-MB-231; experiment: Induction of apoptosis in human MDA-MB-231 cells assessed as late apoptotic cells at 0.5 uM incubated for 24 hrs by Annexin V-PI staining based flow cytometric analysis (reference value: 1.83%); assay type: functional
[22] = test system: MDA-MB-231; experiment: Induction of apoptosis in human MDA-MB-231 cells assessed as early apoptotic cells at 1 uM incubated for 24 hrs by Annexin V-PI staining based flow cytometric analysis (reference value: 0.42%); assay type: functional
[23] = test system: MDA-MB-231; experiment: Induction of apoptosis in human MDA-MB-231 cells assessed as viable cells at 2 uM incubated for 24 hrs by Annexin V-PI staining based flow cytometric analysis (reference value: 96.5%); assay type: functional; details: read-out: Activity
[24] = test system: BT-549; experiment: Induction of apoptosis in human BT-549 cells assessed as upregulation of cleavage of caspase-8 expression at 0.5 to 2 uM incubated for 24 hrs by Western blot analysis; assay type: functional, cell-based; details: dose 0.5-2 µM
[25] = test system: MDA-MB-231; experiment: Induction of apoptosis in human MDA-MB-231 cells assessed as upregulation of cleavage of caspase-9 expression at 0.5 to 2 uM incubated for 24 hrs by Western blot analysis; assay type: functional, cell-based; details: dose 0.5-2 µM
[26] = Toxicity in female BALB/c mouse xenografted with human BT-549 cells assessed as effect on pathological changes in heart at 5 to 20 mg/kg, sc by H and E staining based analysis; assay type: organism-based; details: in vivo, dose 5-20 mg/kg
[27] = Toxicity in female BALB/c mouse xenografted with human BT-549 cells assessed as effect on pathological changes in spleen at 5 to 20 mg/kg, sc by H and E staining based analysis; assay type: organism-based; details: in vivo, dose 5-20 mg/kg
[28] = Toxicity in female BALB/c mouse xenografted with human BT-549 cells assessed as effect on pathological changes in kidney at 5 to 20 mg/kg, sc by H and E staining based analysis; assay type: organism-based; details: in vivo, dose 5-20 mg/kg
[29] = Toxicity in female BALB/c mouse xenografted with human MDA-MB-231 cells assessed as effect on pathological changes in kidney at 5 to 20 mg/kg, sc by H and E staining based analysis; assay type: organism-based; details: in vivo, dose 5-20 mg/kg
[30] = test system: MDA-MB-231; experiment: Antiproliferative activity against human MDA-MB-231 cells xenografted in female BALB/c mouse model assessed as fold change in downregulation of MMP-2 protein level at 5 mg/kg administered subcutaneously incubated for 24 hrs by Western blot analysis (reference value: 1.00%); assay type: functional; details: route sc
[31] = test system: MDA-MB-231; experiment: Antiproliferative activity against human MDA-MB-231 cells xenografted in female BALB/c mouse model assessed as fold change in upregulation of BAX protein level at 20 mg/kg administered subcutaneously incubated for 24 hrs by Western blot analysis (reference value: 1.00%); assay type: functional; details: route sc
[32] = test system: BT-549; experiment: Antiproliferative activity against human BT-549 cells xenografted in female BALB/c mouse model assessed as fold change in upregulation of BAX protein level at 20 mg/kg administered subcutaneously incubated for 24 hrs by Western blot analysis (reference value: 1.00%); assay type: functional; details: route sc
[33] = test system: MDA-MB-231; experiment: Antimetastatic activity against human MDA-MB-231-Luc cells xenografted in female BALB/C mouse assessed as reduction in metastasis speed at 20 mg/kg administered subcutaneously and measured for 16 days; assay type: functional, organism-based; details: route sc, time 16.0 day
[34] = Toxicity in female BALB/c mouse assessed as change in kidney administered subcutaneously measured upto 16 days; assay type: tissue-based; details: in vivo, sc, 384 h, time < 16 day

CC(C)=CCC/C(C)=C/[C@H]1OC(=O)CC12C[C@H](OC(=O)Cc1ccc(NC(=O)/C=C/c3ccccc3)cc1)C=CC2=O (some centres undefined)
IC50 at 24 h [1]: 57.1 µM
inhibition [2]: Dose-Dependent Effect
inhibition [3]: Active
inhibition [4]: Active
inhibition [5]: Dose-Dependent Effect
Activity [6]: Dose-Dependent Effect
inhibition [7]: Active
Activity [8]: Active
inhibition [9]: Active
inhibition [10]: Active
inhibition [11]: Active
Activity [12]: Dose-Dependent Effect
Activity [13]: Dose-Dependent Effect
Activity [14]: Dose-Dependent Effect
Activity [15]: 0.91%
Activity [16]: 3.73%
viability at 1 µM [17]: 66%
Activity [18]: 3.62%
Activity [19]: 24.9%
Activity [20]: 0.83%
Activity [21]: 16.4%
Activity [22]: 0.97%
viability at 2 µM [23]: 48.8%
Activity [24]: Active
Activity [25]: Active
Activity [26]: Non-Toxic
Activity [27]: Non-Toxic
Activity [28]: Non-Toxic
Activity [29]: Non-Toxic
fold change (FC) [30]: 0.44
fold change (FC) [31]: 1.82
fold change (FC) [32]: 2.21
Activity [33]: Active
Activity [34]: Non-Toxic
